Test results reported in publication PMC12136037, “Type II kinase inhibitors that target Parkinson’s disease–associated LRRK2” (Science Advances, 2025).

Columns and labels:
Experiment in all cases: DSF 100 kinase selectivity screen;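 also: compound tested at 20 µM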
Type in all cases: binding
[1] = biological target: T1, ~100 representative kinases (Homo sapiens, UniProt P51955); conditions: protein NEK2; average of three replicates
T1 construct: Recombinant protein kinase domains with a concentration of 2 μM
T1 sequence (P51955 1-445): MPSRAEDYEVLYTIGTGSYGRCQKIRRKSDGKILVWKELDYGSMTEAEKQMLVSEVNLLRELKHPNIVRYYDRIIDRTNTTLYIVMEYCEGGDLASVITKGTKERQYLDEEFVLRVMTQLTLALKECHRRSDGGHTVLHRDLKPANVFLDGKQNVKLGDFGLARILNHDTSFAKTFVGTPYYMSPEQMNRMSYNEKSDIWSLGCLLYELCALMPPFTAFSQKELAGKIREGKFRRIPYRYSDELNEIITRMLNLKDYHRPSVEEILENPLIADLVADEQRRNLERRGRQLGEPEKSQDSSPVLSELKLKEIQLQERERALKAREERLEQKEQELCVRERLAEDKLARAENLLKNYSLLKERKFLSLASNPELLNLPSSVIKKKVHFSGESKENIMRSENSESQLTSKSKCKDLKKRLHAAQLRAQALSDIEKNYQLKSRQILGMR
Summary of the method: (§1)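 Each kinase domain, at 2 μM, is mixed with 20 μM test compound and SYPRO Orange in Hepes (20 mM, pH 7.5) with 500 mM NaCl. Temperature is then raised at 3°C/min and fluorescence-monitored unfolding yields the melting temperature change, ΔTm in degrees Celsius.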

[2] = biological target: T2, ~100 representative kinases (Homo sapiens, UniProt Q13153); conditions: protein PAK1; average of three replicates
T2 construct: Recombinant protein kinase domains with a concentration of 2 μM
T2 sequence (Q13153 whole entry, the tested form may be a part): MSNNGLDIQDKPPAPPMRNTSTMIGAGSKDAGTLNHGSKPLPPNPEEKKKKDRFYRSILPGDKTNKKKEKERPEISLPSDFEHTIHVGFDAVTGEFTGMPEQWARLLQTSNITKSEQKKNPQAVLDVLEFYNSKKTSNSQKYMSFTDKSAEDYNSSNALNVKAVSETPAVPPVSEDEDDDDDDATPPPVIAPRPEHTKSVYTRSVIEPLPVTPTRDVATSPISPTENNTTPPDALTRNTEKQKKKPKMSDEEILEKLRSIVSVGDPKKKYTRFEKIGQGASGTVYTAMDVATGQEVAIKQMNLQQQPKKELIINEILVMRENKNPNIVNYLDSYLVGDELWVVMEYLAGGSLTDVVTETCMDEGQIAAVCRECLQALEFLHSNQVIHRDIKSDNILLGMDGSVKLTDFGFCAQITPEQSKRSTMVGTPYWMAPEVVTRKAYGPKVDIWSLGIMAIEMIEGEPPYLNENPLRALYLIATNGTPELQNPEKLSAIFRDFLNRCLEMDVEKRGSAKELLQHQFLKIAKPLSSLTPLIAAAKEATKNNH
Summary of the method: as §1

[3] = biological target: T3, ~100 representative kinases (Homo sapiens, UniProt P68400); conditions: Protein CK2A1; average of three replicates
T3 construct: Recombinant protein kinase domains with a concentration of 2 μM
Summary of the method: as §1

[4] = biological target: T4, ~100 representative kinases (Homo sapiens, UniProt Q14680); conditions: protein MELK; average of three replicates
T4 construct: Recombinant protein kinase domains with a concentration of 2 μM
T4 sequence (Q14680 whole entry, the tested form may be a part): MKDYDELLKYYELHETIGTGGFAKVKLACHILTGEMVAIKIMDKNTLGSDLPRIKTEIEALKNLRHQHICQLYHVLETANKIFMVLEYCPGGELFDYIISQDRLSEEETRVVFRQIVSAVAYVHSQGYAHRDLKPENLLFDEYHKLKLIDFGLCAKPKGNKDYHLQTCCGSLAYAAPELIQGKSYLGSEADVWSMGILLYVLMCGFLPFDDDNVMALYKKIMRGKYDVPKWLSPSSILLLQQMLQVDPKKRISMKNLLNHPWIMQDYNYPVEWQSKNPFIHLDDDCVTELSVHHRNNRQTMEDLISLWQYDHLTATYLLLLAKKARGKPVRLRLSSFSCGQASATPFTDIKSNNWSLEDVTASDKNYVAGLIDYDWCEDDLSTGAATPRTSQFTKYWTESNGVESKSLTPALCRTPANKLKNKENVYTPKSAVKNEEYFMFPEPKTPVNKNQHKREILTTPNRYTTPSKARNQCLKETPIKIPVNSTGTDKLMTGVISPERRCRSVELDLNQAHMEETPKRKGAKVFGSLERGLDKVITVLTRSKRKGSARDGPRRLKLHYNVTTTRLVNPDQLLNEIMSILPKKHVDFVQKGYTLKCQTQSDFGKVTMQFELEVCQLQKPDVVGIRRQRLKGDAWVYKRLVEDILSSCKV
Summary of the method: as §1

[5] = biological target: T5, ~100 representative kinases (Homo sapiens, UniProt P45984); conditions: protein MAPK9; average of three replicates
T5 construct: Recombinant protein kinase domains with a concentration of 2 μM
T5 sequence (P45984 whole entry, the tested form may be a part): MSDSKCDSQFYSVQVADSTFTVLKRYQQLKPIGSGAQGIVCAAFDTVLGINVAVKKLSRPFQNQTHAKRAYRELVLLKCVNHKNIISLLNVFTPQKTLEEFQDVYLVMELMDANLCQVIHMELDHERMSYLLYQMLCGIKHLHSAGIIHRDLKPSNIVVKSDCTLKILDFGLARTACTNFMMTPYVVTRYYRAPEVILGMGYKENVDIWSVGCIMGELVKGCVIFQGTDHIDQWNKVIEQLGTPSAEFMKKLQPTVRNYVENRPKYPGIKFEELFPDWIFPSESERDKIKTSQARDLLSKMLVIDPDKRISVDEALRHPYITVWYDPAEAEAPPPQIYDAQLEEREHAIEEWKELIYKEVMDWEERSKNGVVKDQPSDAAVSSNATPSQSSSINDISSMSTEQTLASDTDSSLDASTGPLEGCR
Summary of the method: as §1

[6] = biological target: T6, ~100 representative kinases (Homo sapiens, UniProt Q9UKI8); conditions: Protein TLK1; DSF; average of three replicates
T6 construct: Recombinant protein kinase domains with a concentration of 2 μM
T6 sequence (Q9UKI8 1-766): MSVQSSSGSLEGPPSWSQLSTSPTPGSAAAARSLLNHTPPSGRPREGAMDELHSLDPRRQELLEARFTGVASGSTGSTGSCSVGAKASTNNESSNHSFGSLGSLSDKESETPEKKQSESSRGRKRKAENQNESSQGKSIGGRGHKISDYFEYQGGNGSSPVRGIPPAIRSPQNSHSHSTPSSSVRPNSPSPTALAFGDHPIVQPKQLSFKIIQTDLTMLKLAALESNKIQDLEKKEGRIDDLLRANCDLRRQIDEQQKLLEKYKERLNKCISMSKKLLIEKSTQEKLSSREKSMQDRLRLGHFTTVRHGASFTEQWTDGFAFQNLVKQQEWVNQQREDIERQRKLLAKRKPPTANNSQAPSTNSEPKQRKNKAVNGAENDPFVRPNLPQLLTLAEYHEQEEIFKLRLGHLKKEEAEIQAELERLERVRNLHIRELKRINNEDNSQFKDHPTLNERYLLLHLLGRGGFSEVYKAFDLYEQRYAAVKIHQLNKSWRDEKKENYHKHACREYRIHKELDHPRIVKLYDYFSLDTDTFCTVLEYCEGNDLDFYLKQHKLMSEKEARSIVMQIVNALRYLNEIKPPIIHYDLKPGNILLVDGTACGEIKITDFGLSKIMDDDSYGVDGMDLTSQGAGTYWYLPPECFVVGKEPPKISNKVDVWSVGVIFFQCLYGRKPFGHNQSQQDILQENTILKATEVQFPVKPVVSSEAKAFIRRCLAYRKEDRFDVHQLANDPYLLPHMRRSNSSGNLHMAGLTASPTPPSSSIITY
Summary of the method: as §1

[7] = biological target: T7, ~100 representative kinases (Homo sapiens, UniProt P21675); conditions: Protein TAF1; DSF; average of three replicates
T7 construct: Recombinant protein kinase domains with a concentration of 2 μM
T7 sequence (P21675 whole entry, the tested form may be a part): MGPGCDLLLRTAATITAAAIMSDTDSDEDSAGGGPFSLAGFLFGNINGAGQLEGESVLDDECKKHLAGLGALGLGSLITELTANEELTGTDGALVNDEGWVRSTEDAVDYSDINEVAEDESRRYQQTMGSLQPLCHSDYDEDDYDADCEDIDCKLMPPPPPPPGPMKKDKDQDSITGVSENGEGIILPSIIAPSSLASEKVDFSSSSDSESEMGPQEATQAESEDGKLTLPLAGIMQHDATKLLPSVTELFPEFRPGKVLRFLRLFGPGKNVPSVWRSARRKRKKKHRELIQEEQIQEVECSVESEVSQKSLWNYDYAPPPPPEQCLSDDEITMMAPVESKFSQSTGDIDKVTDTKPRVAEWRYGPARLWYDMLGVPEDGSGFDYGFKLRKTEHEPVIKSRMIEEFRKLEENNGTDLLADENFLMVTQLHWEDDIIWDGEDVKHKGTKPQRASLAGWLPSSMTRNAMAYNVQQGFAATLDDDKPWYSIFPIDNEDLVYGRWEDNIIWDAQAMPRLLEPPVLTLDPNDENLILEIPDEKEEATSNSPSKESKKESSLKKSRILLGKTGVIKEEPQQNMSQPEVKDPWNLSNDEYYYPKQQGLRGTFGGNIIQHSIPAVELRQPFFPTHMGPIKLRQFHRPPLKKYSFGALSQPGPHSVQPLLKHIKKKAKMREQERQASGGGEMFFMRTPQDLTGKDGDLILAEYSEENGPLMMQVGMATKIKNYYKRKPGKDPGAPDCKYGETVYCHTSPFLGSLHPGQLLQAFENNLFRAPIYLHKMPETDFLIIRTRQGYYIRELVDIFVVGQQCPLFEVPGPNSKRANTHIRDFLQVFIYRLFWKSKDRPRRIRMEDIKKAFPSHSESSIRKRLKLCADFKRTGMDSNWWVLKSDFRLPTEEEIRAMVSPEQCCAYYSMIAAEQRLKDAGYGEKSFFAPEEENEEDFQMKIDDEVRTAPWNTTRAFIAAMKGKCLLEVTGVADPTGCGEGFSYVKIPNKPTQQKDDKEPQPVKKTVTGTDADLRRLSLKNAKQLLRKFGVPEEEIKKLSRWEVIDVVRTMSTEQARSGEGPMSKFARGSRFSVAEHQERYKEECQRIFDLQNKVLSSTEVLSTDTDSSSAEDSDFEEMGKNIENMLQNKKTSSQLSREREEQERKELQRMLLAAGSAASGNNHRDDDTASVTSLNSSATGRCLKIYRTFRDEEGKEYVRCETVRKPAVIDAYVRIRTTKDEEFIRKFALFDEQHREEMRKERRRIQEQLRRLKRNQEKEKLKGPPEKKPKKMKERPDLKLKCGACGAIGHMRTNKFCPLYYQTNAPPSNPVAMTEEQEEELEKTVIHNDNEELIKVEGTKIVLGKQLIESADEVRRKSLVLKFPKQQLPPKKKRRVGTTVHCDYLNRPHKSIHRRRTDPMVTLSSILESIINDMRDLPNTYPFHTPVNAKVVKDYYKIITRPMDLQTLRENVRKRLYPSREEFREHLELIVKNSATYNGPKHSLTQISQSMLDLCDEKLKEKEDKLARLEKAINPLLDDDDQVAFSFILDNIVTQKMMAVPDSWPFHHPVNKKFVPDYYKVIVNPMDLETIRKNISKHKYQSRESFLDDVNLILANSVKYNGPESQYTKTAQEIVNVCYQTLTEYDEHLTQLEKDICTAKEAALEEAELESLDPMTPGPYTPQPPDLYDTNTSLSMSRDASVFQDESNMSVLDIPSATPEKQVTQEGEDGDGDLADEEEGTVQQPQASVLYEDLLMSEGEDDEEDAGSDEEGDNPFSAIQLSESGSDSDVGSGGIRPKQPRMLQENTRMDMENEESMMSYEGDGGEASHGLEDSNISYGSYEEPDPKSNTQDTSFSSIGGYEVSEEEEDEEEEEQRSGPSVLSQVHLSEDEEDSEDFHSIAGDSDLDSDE
Summary of the method: as §1

[8] = biological target: T8, ~100 representative kinases (Homo sapiens, UniProt O95747); conditions: protein OSR1; average of three replicates
T8 construct: Recombinant protein kinase domains with a concentration of 2 μM
T8 sequence (O95747 whole entry, the tested form may be a part): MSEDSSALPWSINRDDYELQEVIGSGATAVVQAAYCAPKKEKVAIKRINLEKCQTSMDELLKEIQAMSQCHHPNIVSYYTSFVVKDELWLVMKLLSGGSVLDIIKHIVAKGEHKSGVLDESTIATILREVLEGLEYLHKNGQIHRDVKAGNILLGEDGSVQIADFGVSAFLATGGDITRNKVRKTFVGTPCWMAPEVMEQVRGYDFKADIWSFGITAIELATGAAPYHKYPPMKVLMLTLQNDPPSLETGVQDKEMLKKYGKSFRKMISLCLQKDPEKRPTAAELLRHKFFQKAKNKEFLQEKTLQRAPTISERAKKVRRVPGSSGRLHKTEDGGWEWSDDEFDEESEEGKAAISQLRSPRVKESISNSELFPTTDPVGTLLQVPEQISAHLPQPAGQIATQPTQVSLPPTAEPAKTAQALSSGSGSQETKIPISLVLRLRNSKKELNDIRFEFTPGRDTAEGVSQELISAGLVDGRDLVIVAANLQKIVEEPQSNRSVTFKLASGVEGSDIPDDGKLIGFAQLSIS
Summary of the method: as §1

[9] = biological target: T9, ~100 representative kinases (Homo sapiens, UniProt O14965); conditions: Protein STK6; DSF; average of three replicates
T9 construct: Recombinant protein kinase domains with a concentration of 2 μM
T9 sequence (O14965 1-403): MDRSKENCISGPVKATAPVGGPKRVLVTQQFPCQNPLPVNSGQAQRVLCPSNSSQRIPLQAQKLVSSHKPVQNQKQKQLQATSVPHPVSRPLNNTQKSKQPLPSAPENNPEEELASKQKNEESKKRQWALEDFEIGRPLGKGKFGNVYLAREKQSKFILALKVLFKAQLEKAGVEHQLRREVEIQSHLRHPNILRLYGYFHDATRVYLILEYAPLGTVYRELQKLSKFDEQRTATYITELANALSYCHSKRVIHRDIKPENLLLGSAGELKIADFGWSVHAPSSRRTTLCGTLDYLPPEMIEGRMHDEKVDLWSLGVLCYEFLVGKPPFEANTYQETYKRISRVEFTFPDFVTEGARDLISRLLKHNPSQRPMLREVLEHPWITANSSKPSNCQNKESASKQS
Summary of the method: as §1

[10] = biological target: T10, ~100 representative kinases (Homo sapiens, UniProt P22830); conditions: protein FECH; average of three replicates
T10 construct: Recombinant protein kinase domains with a concentration of 2 μM
T10 sequence (P22830 55-423): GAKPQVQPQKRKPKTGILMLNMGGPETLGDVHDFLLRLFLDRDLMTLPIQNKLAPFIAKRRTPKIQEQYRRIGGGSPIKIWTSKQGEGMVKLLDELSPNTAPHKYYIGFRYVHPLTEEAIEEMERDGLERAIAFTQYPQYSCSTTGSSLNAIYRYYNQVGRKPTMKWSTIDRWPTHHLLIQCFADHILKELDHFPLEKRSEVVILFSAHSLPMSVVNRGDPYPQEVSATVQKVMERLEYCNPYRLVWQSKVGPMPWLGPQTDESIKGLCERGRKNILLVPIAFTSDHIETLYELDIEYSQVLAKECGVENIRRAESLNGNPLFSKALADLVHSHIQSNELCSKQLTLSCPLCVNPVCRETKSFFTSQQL
Summary of the method: as §1

[11] = biological target: T11, ~100 representative kinases (Homo sapiens, UniProt Q15418); conditions: Protein RPS6KA1; DSF; average of three replicates
T11 construct: Recombinant protein kinase domains with a concentration of 2 μM
T11 sequence (Q15418 whole entry, the tested form may be a part): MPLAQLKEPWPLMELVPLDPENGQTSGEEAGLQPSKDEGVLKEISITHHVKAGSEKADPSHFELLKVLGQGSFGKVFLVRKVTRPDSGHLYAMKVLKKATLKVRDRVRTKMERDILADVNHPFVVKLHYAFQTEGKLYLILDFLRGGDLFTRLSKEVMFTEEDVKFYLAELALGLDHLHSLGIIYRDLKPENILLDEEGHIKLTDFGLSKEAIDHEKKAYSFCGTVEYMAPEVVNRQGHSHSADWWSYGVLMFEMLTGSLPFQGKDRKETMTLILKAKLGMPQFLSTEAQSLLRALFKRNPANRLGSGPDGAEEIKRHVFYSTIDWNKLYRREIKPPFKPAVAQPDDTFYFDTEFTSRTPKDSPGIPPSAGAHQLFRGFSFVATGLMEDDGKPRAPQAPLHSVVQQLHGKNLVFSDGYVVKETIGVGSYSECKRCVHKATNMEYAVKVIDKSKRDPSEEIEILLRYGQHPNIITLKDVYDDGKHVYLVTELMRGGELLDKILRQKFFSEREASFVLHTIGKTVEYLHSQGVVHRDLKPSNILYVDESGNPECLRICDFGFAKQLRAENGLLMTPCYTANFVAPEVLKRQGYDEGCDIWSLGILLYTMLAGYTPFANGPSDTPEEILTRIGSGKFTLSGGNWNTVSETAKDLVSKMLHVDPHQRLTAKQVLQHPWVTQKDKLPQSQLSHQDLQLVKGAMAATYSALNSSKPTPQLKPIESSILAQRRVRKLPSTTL
Summary of the method: as §1

Structure (SMILES) | dTm [1] [K] | dTm [2] [K] | dTm [3] [K] | dTm [4] [K] | dTm [5] [K] | dTm [6] [K] | dTm [7] [K] | dTm [8] [K] | dTm [9] [K] | dTm [10] [K] | dTm [11] [K]
Cc1ccc(C(=O)Nc2ccc(CN3CCN(C)CC3)c(C(F)(F)F)c2)cc1C#Cc1c[nH]c2ncnc(N3CCOCC3)c12 [Compound 1] | 4.11 | 1.52 | 2.53 | 8.08 | 5.51 | 0.86 | 0.36 | 1.78 | 12.62 | 0.00 | 2.57
O=C(Nc1ccc(F)cc1)C1(C(=O)Nc2cccc(-c3c[nH]c4ncnc(N5CCOCC5)c34)c2)CC1 [Compound 2] | 0.52 | 2.06 | 0.00 | 14.87 | 2.87 | -1.13 | 0.23 | 1.55 | 6.07 | -0.03 | 0.23
O=C(Nc1cccc(-c2c[nH]c3ncnc(N4CCOCC4)c23)c1)c1cccn(-c2ccc(F)cc2)c1=O [Compound 4] | 0.47 | 4.33 | 1.35 | 12.90 | 5.57 | -0.72 | -0.36 | 1.98 | 7.18 | 2.76 | -0.19
Cc1cc(NC(=O)C2(C(=O)Nc3ccc(F)cc3)CC2)cc(-c2c[nH]c3ncnc(N4CCOCC4)c23)c1 [Compound 6] | 0.05 | 1.55 | 0.12 | 11.24 | 2.51 | 1.18 | 0.30 | -0.63 | 6.69 | -0.18 | 0.88
O=C(Nc1cccc(-c2c[nH]c3ncnc(N4CCOCC4)c23)c1)C1(C(=O)Nc2cccc3c2CCC3)CC1 [Compound 11] | -1.56 | 3.04 | -1.70 | 10.76 | 4.16 | 1.55 | -5.02 | 0.42 | 4.34 | -8.36 | 0.47
O=C(Nc1ccccc1)C1(C(=O)Nc2cccc(-c3c[nH]c4ncnc(N5CCOCC5)c34)c2)CC1 [Compound 12] | 1.92 | 1.90 | 0.00 | 12.58 | 2.81 | 0.18 | -0.82 | 1.28 | 6.39 | 0.29 | 0.56
COc1cc2c(Oc3ccc(NC(=O)C4(C(=O)Nc5ccc(F)cc5)CC4)cc3F)ccnc2cc1OCCCN1CCOCC1 [Foretinib, reference compound] | 1.91 | 1.69 | 0.00 | 7.59 | 2.84 | 0.36 | 0.54 | -0.48 | – | -11.10 | -0.88
CCNc1nc(Nc2cc(F)c(C(=O)N3CCOCC3)cc2OC)ncc1C(F)(F)F [GNE-7915] | 0.39 | -0.11 | 1.87 | 2.44 | 0.58 | 0.65 | -0.58 | 0.21 | 3.65 | – | 0.64
Cc1ccc(C(=O)Nc2ccc(CN3CCN(C)CC3)c(C(F)(F)F)c2)cc1C#Cc1cnc2[nH]ncc2c1 [GZD-824, reference compound] | 0.45 | 4.19 | -1.14 | 5.45 | 4.93 | -0.0844 | -0.68 | 0.93 | 3.67 | – | 9.39
C[C@@H]1CN(c2cc(-c3n[nH]c4ccc(OC5(C)CC5)cc34)ncn2)C[C@H](C)O1 [MLi2] | -0.21 | -0.13 | 0.17 | 0.47 | 0.30 | 0.0124 | -0.34 | 0.07 | 0.17 | – | 2.98
Cn1cc(-c2c[nH]c3ncnc(N4CCOCC4)c23)cc1C#N [PFE-360] | – | -0.19 | 0.25 | 5.72 | 0.17 | -0.11 | -0.43 | -0.14 | 8.08 | – | 1.09
Cc1ccc(C(=O)Nc2ccc(CN3CCN(C)CC3)c(C(F)(F)F)c2)cc1C#Cc1cnc2cccnn12 [Ponatinib, reference compound] | – | – | – | – | – | – | -0.60 | – | 1.61 | – | 9.86
CNC(=O)c1cc(Oc2ccc(NC(=O)Nc3cc(C(C)(C)C)nn3-c3ccc4ncccc4c3)c(F)c2)ccn1 [Rebastinib, reference compound] | 2.06 | 1.98 | – | 0.63 | 9.78 | 0.57 | -2.54 | 1.75 | 1.83 | -5.98 | 1.31
CN[C@@H]1C[C@H]2O[C@@](C)([C@@H]1OC)n1c3ccccc3c3c4c(c5c6ccccc6n2c5c31)C(=O)NC4 [Staurosporine] | 4.25 | 7.21 | – | 14.15 | – | – | 0.52 | 8.41 | 20.49 | – | –
